Experimental findings from article PMC4355085 (Cancer discovery, 2014) are described below.

Structures are written as SMILES. pIC50: −log10 of the molar value.

This test has as its target EphA2 (Homo sapiens, UniProt P29317). Nature of the test: cell-free kinase assay. The class given is biochemical.

Chain of EphA2 (P29317 24-976): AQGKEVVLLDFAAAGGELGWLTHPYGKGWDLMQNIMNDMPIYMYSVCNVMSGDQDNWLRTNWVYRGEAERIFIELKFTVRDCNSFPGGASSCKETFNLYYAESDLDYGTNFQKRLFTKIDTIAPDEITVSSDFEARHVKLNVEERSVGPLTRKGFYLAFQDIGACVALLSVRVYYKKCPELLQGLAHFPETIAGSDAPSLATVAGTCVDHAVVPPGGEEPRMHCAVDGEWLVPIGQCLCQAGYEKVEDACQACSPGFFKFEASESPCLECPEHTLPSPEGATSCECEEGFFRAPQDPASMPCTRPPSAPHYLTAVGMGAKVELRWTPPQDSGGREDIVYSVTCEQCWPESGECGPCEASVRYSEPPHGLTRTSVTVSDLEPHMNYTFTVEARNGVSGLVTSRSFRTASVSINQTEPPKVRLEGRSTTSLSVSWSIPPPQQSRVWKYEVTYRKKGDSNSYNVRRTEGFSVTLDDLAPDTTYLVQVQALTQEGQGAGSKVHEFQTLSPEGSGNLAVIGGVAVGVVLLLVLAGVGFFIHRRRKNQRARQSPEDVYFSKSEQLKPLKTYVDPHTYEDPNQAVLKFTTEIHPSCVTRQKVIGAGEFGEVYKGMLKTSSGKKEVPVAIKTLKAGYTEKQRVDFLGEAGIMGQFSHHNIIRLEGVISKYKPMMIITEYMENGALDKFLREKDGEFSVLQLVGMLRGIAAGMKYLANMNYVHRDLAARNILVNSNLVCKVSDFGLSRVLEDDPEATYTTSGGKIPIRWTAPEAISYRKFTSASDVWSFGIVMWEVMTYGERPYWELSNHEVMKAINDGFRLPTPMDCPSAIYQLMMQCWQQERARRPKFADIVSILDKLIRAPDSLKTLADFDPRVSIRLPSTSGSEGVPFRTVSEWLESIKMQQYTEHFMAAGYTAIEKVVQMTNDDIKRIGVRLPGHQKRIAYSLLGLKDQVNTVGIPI

In turn, `CCN1CCN(Cc2ccc(NC(=O)c3ccc(C)c(/C=C/c4cnc5[nH]ccc5c4OC)c3)cc2C(F)(F)F)CC1` [HG-6-64-1] gave a pIC50 of 7.11.
